Test results as given in paper PMC4884932, “Selective brain penetrable Nurr1 transactivator for treating Parkinson's disease” (Oncotarget, 2016).
Read-outs that look alike come from different tables or passages of the source.

Tests used:
6-OHDA lesioned rats [1] = assay: Cylinder test in 6-OHDA lesioned rat model of PD; format: in vivo; conditions: 10mg/kg/day gavage for three weeks, day 17 and day 24 post-lesion, p < 0.05
Protocol: (§1) All surgical procedures were performed under general anesthesia with ketamine/xylazine. 2μl 6-OHDA (20 mg/ml in 0.02% ascorbic acid) was stereotaxically injected into the right striatum of male SD rats. Lesion coordinates were set according to bregma and dura in mm: ML-3.7; AP-1.0; DV-5.5. The injection rate was 2μl/5 min and the injecting needle was left for 2 minutes after injection to avoid back flow. Apomorphine-induced rotations (see below) were assessed three days post-lesion and rats with ≥ 30 full contralateral rotation/30 minutes were included in the study.
(§2) Rats were randomly grouped into vehicle control group (n = 11) and drug treatment group (n = 10). […] The control group received DMSO/corn oil (vehicle). The treatment continued for three weeks.
The cylinder test was used to test for forelimb use asymmetry. Rats to be tested were placed individually in a glass cylinder (21 cm diameter, 34 cm height) and wall exploration was recorded for five minutes. Wall exploration was expressed in terms of the percentage of impaired (right) forelimb vs. total (right+left+both) usage. Paw placement test was performed before the lesion for baseline, three days post lesion and two weeks and three weeks following treatment.

primary VMB neurons = assay: Nurr1 downstream gene expression in VMB neurons (real time PCR); format: cell-based, mouse; conditions: 1nM, 16 hours
Protocol: Ventral midbrain (VMB) from E13.5-14.5 C57BL/6 mouse embryos were dissected, triturated and plated on poly-D-lysine coated 12 well plates or glass coverslips with the serum-free chemically-defined Neurobasal medium, supplemented with 2% B27, 0.5mM L-glutamine, 50I.U./ml penicillin and 50μg/ml streptomycin (Gibco-BRL). […] For each time point, cells were washed once with phosphate buffered saline and fixed with 4% paraformaldehyde for TH immunofluorescent staining. For cell counting, 10 frames were randomly captured from each well using a Leica fluorescent microscope and a minimum of four replicates for each dose and each time point were analyzed for each experiment.
Total RNA from VMB neurons or rat substantia nigra were isolated using the RNeasy Mini Kit from Qiagen (Valencia, CA) and 1μg of total RNA was reverse transcribed using SuperScript III first-strand synthesis supermix for qRT-PCR from Invitrogen (Carlsbad, CA) according to the manufacturer's instruction. Quantitative RT-PCR was performed using Maxima SYBR Green master mix (Fermentas) in ABI Prism 7900HT in four replicates with primers amplifying the target genes. Expression level of actin was used as an internal control. Data were normalized using the 2^−ΔΔCt method. Levels of target gene mRNAs were expressed relative to those in vehicle control groups and plotted in GraphPad Prism.

6-OHDA lesioned rats [2] = assay: DAT and TH content in the striatum by Western blot, 6-OHDA lesioned rats; format: in vivo, rat; conditions: 10mg/kg/day gavage for three weeks
Protocol: as §1, §2
Striatum samples were homogenized and boiled in SDS-PAGE sample buffer and separated onto 10% Tris-glycine gels. Western blotting was performed using anti-TH or anti-DAT (Millipore, Billerica, MA), as primary antibodies and enhanced chemiluminescence signals were quantified and normalized with β-actin.

[3] = IRX4204 content in the brain by LC/MS/MS; format: in vivo; conditions: male, SD, oral, rat, 7 days repeated dosing 10 mg/kg/day gavage, one hour after the last dose
Protocol: Male SD rats underwent daily gavage with 10mg/kg/day for seven days. One hour after the last dose, rats were anesthetized with ketamine/xylazine and transcardially perfused with cold saline. Brains were isolated and homogenized with two volumes of phosphate buffer using ultrasonication. A 100μl sample of the homogenate was transferred to a 1.7ml centrifuge tube and mixed with 20μl of internal standard (100ng/ml of 13-cis retinoic acid-d5 in diluent). Then the sample was deproteinized with 300μl of acetonitrile, centrifuged, and the supernatant was transferred to an autosampler vial for analysis by LC/MS/MS. The calibration standards and the internal standard (13-cis retinoic acid-d5) were diluted in acetonitrile:butylatedhydroxyanisole:ethoxyquin:triethylamine (100:0.05:0.02:0.1, v/w/v/v).
(§3) The LC/MS system was comprised of Waters Acquity Ultra Performance Liquid Chromatography (UPLC) coupled to a XEVO-TQS (Waters). The samples were analyzed by reverse-phase HPLC using a Waters Atlantis T3 column (150 × 2.1mm, 5um). The mobile phase was nebulized using heated nitrogen in a Z-spray source/interface set to electrospray negative ionization mode. The ionized compounds were detected using MS/MS. […] The detection was linear between 2.5nM to 10nM.

[4] = Plasma protein binding by equilibrium dialysis, rat plasma; format: in vitro ADME; conditions: K3EDTA control plasma, 37°C, read-out: plasma protein binding, bound (converted)
Protocol: (§4) SD male rats were grouped into four groups: vehicle, 1mg/kg/day, 3mg/kg/day and 10mg/kg/day. Rats were treated with the designated dose by daily gavage. Acute plasma PK was conducted on day one and acute-on-chronic plasma PK was conducted on day 24. Pharmacokinetic assessment was conducted by collecting of blood at baseline (prior gavage), 0.25, 0.5, 1, 2, 4, 8, 12 and 24h post gavage. […] The spiked plasma was dialyzed at 37°C against an isotonic sodium phosphate buffer to achieve equilibrium. At the end of dialysis, the plasma and buffer level of IRX4204 were quantified by LC/MS/MS.

[5] = Plasma pharmacokinetics after oral gavage; format: in vivo; conditions: SD, rat
Protocol: […] Rats were treated with the designated dose by daily gavage. Acute plasma PK was conducted on day one and acute-on-chronic plasma PK was conducted on day 24. Pharmacokinetic assessment was conducted by collecting of blood at baseline (prior gavage), 0.25, 0.5, 1, 2, 4, 8, 12 and 24h post gavage. […] The spiked plasma was dialyzed at 37°C against an isotonic sodium phosphate buffer to achieve equilibrium. At the end of dialysis, the plasma and buffer level of IRX4204 were quantified by LC/MS/MS.
as §3

[6] = Plasma protein binding by equilibrium dialysis, human plasma; format: in vitro ADME; conditions: K3EDTA control plasma, 37°C, read-out: plasma protein binding, bound (converted)
Protocol: as §4

[7] = female, 1 mg/kg/day, 1mg/kg/day gavage, Week 4
[8] = female, 1 mg/kg/day, Female, 1mg/kg/day gavage, Day 1
[9] = female, 3 mg/kg/day, 3mg/kg/day gavage, Week 4
[10] = female, 3 mg/kg/day, Female, 3mg/kg/day gavage, Day 1
[11] = female, 10 mg/kg/day, 10 mg/kg/day gavage, Week 4
[12] = female, 10 mg/kg/day, Female, 10 mg/kg/day gavage, Day 1
[13] = male, 1 mg/kg/day, 1mg/kg/day gavage, Week 4
[14] = male, 1 mg/kg/day, Male, 1mg/kg/day gavage, Day 1
[15] = male, 3 mg/kg/day, 3mg/kg/day gavage, Week 4
[16] = male, 3 mg/kg/day, Male, 3mg/kg/day gavage, Day 1
[17] = male, 10 mg/kg/day, 10 mg/kg/day gavage, Week 4
[18] = male, 10 mg/kg/day, Male, 10 mg/kg/day gavage, Day 1

CC(/C=C/[C@@H]1C[C@]1(C)c1ccc2c(c1)C(C)(C)CCC2(C)C)=C\C(=O)O [IRX4204]
spontaneous forelimb use in the cylinder test (6-OHDA lesioned rats [1]): significantly improved spontaneous forelimb use to pre-lesion levels
expression of dopa-decarboxylase (DDC) (primary VMB neurons): significantly increased
expression of dopamine transporter (DAT) (primary VMB neurons): significantly increased
DAT content in the lesioned striatum versus non-lesioned side (6-OHDA lesioned rats [2]): almost identical to those in the non-lesioned side
TH content in the lesioned striatum versus non-lesioned side (6-OHDA lesioned rats [2]): almost identical to those in the non-lesioned side
concentration at 1 h [3]: 11.5 ± 2.9 nM
fraction unbound at 1 ug/ml [4]: 0.0249
Cmax [5, 7]: 43.4 ng/mL
Tmax [5, 7]: 15 min
Cmax [5, 8]: 120 ng/mL
Tmax [5, 8]: 30 min
AUC(0-t) ([5]; female, 1 mg/kg/day, Female, 1mg/kg/day gavage, Day 1, read-out: AUC0-24): 251 ng·h/mL
AUC(0-t) ([5]; female, 1 mg/kg/day, Female, 1mg/kg/day gavage, Week 4, read-out: AUC0-24): 136 ng·h/mL
Cmax [5, 9]: 101 ng/mL
Tmax [5, 9]: 60 min
Cmax [5, 10]: 362 ng/mL
Tmax [5, 10]: 30 min
AUC(0-t) ([5]; female, 3 mg/kg/day, Female, 3mg/kg/day gavage, Day 1, read-out: AUC0-24): 975 ng·h/mL
AUC(0-t) ([5]; female, 3 mg/kg/day, Female, 3mg/kg/day gavage, Week 4, read-out: AUC0-24): 344 ng·h/mL
Cmax [5, 11]: 667 ng/mL
Tmax [5, 11]: 15 min
Cmax [5, 12]: 974 ng/mL
Tmax [5, 12]: 30 min
AUC(0-t) ([5]; female, 10 mg/kg/day, Female, 10 mg/kg/day gavage, Day 1, read-out: AUC0-24): 2440 ng·h/mL
AUC(0-t) ([5]; female, 10 mg/kg/day, Female, 10 mg/kg/day gavage, Week 4, read-out: AUC0-24): 940 ng·h/mL
Cmax [5, 13]: 25.7 ng/mL
Tmax [5, 13]: 15 min
Cmax [5, 14]: 58.9 ng/mL
Tmax [5, 14]: 30 min
AUC(0-t) ([5]; male, 1 mg/kg/day, Male, 1mg/kg/day gavage, Day 1, read-out: AUC0-24): 140 ng·h/mL
AUC(0-t) ([5]; male, 1 mg/kg/day, Male, 1mg/kg/day gavage, Week 4, read-out: AUC0-24): 27.5 ng·h/mL
Cmax [5, 15]: 54.5 ng/mL
Tmax [5, 15]: 30 min
Cmax [5, 16]: 198 ng/mL
Tmax [5, 16]: 30 min
AUC(0-t) ([5]; male, 3 mg/kg/day, Male, 3mg/kg/day gavage, Day 1, read-out: AUC0-24): 484 ng·h/mL
AUC(0-t) ([5]; male, 3 mg/kg/day, Male, 3mg/kg/day gavage, Week 4, read-out: AUC0-24): 280 ng·h/mL
Cmax [5, 17]: 77.2 ng/mL
Tmax [5, 17]: 15 min
Cmax [5, 18]: 542 ng/mL
Tmax [5, 18]: 15 min
AUC(0-t) ([5]; male, 10 mg/kg/day, Male, 10 mg/kg/day gavage, Day 1, read-out: AUC0-24): 1490 ng·h/mL
AUC(0-t) ([5]; male, 10 mg/kg/day, Male, 10 mg/kg/day gavage, Week 4, read-out: AUC0-24): 422 ng·h/mL
fraction unbound at 1 ug/ml [6]: 0.0064
